Measurements from US7037914B2, “Carboxylic acid derivative and a pharmaceutical composition containing the derivative as active ingredient” (Ono Pharmaceutical Co., Ltd., priority 1998, dated 2006).

Key:
[1] = target: T1, human PPAR α (Homo sapiens, UniProt Q07869); assay: Luciferase assay using human PPAR α (Gal4-PPAR chimeric receptor in CV-1 cells); type: cell-based; settings: compound 0.3 μM; luciferase activity of carbaprostacylin 10 μM defined as 1.0
T1 construct: expressed in transfected cells; host or cells: CV-1 cells
T1 sequence (Q07869 167-468): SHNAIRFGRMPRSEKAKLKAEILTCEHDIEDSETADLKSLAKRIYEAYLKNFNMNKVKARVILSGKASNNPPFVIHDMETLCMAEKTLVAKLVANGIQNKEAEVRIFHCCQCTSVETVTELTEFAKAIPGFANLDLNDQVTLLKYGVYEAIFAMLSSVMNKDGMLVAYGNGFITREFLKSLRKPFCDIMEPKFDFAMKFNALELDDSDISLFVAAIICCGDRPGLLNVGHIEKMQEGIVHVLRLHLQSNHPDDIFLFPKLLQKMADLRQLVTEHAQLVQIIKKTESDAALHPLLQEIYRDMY

[2] = target: T2, human PPAR γ (Homo sapiens, UniProt P37231); assay: Luciferase assay using human PPAR γ (Gal4-PPAR chimeric receptor in CV-1 cells); type: cell-based; settings: compound 1.0 μM; luciferase activity of troglitazone 10 μM defined as 1.0
T2 construct: expressed in transfected cells; host or cells: CV-1 cells
T2 sequence (P37231 176-477 isoform P37231-2): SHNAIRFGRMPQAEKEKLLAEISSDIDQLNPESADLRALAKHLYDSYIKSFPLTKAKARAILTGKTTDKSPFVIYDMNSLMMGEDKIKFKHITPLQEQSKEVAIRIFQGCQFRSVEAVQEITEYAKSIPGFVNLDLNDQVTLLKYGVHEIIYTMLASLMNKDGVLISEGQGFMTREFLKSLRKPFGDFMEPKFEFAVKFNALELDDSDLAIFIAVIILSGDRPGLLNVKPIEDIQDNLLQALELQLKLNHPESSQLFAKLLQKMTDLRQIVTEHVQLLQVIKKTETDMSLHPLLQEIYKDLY

[3] = test system: KKAy/Ta mice; assay: Hypoglycemic and hypolipidemic effects in KKAy mice; type: in vivo; settings: 3 days, food containing 0.03 % (w/w) compound, 38.9 mg/kg/day (converted)
Source text: Hypoglycemic and hypolipidemic effects in KKAy mice:
Male, 7-weeks old KKAy/Ta mice weighed from […] (seven mice per group) were pre-breaded for approximately one week and acclimatized for three days on milled diet. On the first day of the experiment (Day 0), mice were divided into some groups by weight, plasma glucose and triglyceride (TG) levels to minimize the differences among groups. From the next day for two days they were given compounds by food mixture containing 0.03 % (w/w) of the compound of the present invention or by milled diet only. At 13:00 of the third day, blood samples were collected and glucose and TG were measured. Additionally, there was no significant difference in the food intake between control group (milled diet only) and compounds-treated group (milled diet containing 0.03 % compounds).

[4] = test system: SD rats; assay: Hypocholesterolemic and hypolipidemic effects in normal rats; type: in vivo; settings: 10 mg/kg orally, hypercholesterolemic food, blood sampled next day
Source text: Hypocholesterolemic and hypolipidemic effects in normal rats:
Male, six-weeks old SD rats (seven rats per group) were left to take milled diet and water ad libitum and were acclimatized for 1 week.
At 9:00 on the first day of the experiment (Day 0) blood sampling was done from tail vein. The rats were divided into some groups by body weight, triglyceride(TG), non-esterified fatty acid (NEFA), total cholesterol (TC) values to minimize differences of the parameters among the groups. At 17:00 of the day the compound of the present invention suspended in 0.5% aqueous solution of carboxymethylcellulose (CMC) was orally administered at a dose of 10 mg/kg, and thereafter, with hypercholesterolemic food (5.5% peanut oil, 1.5% cholesterol and 0.5% cholic acid were mixed with milled CRF-1 diet, Charles River Inc.) was given to the rats.
At 9:00 of the next day, blood sampling was done from tail vein. The lipid values in blood (TG, NEFA and TC values) were measured.
There was no significant difference of the food intake between the control group (provided only 0.5% CMC) and the group treated with the compounds of the present invention.

[5] = target: T3, human PPAR δ (Homo sapiens, UniProt Q03181); assay: Luciferase assay using human PPAR δ (Gal4-PPAR chimeric receptor in CV-1 cells); type: cell-based; settings: luciferase activity with solvent containing no compound defined as 1.0
T3 construct: expressed in transfected cells; host or cells: CV-1 cells
T3 sequence (Q03181 139-441): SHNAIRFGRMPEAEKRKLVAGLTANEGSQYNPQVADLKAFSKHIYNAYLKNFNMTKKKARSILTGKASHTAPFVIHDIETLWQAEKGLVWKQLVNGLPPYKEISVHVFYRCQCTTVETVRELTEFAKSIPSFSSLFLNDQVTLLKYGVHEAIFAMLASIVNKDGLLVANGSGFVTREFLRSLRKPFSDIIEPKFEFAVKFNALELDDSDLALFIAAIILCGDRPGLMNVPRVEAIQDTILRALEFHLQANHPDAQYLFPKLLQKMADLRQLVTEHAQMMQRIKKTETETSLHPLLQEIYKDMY

Structure (SMILES)	PPAR α agonist activity, Relative Activity [1]	PPAR δ agonist activity, relative activity ([5]; concentration 1.0 μM)	PPAR δ agonist activity, relative activity ([5]; concentration 10.0 μM)	other results
Cc1oc(-c2ccccc2)nc1CCOc1cccc(CCCC(=O)O)c1 [Example 2 (5), 4-(3-(2-(5-methyl-2-phenyloxazol-4-yl)ethoxy)phenyl)butanoic acid]	0.8			
O=C(O)CSCc1cccc(OCc2ccc(-c3ccccc3)cc2)c1 [Example 2 (11), 2-(3-(biphenyl-4-ylmethoxy)phenylmethylthio)acetic acid]	3.2			
Cc1oc(-c2ccccc2)nc1CCOc1cccc(CSCC(=O)O)c1 [Example 2 (12), 2-(3-(2-(5-methyl-2-phenyloxazol-4-yl)ethoxy)phenylmethylthio)acetic acid]	1.7			PPAR γ agonist activity, Relative Activity [2]: 1.4; glycemic value ([3]; control 495 ± 35): 214 ± 19 mg/dL; TG value ([3]; control 558 ± 107): 221 ± 66 mg/dL; TG value ([4]; control 147 ± 9): 100 ± 14 mg/dL; TC value ([4]; control 188 ± 5): 70 ± 5 mg/dL; NEFA value ([4]; control 489 ± 66): 178 ± 14 μEq/l
Cc1oc(-c2ccccc2)nc1CCOc1cccc(CC(=O)O)c1 [Example 2 (22)]		9.3	66.7	
Cc1oc(-c2ccc3c(c2)OCO3)nc1CCOc1cccc(CC(=O)O)c1 [Example 2 (93), 2-(3-(2-(5-methyl-2-(1,3-dioxaindan-5-yl)oxazol-4-yl)ethoxy)phenyl)acetic acid]		36.1	54.7	
